{"source": "patent US10179816B2", "about": "“Pharmaceutical compositions comprising an antibody which binds the human anti-Müllerian hormone receptor type II” (LABORATOIRE FRANCAIS DU FRACTIONNEMENT DES BIOTECHNOLOGIES, priority 2011, dated 2019)", "key": {"[1]": {"system": "Cov434-AMHRII Asc1a5 (cell line of human ovarian cancer transfected with cDNA AMHRII)", "test": "Anti-tumour activity of 3C23K alone or with carboplatin in Cov434-AMHRII Asc1a5 xenograft (tumour volume, T/C ratio, statistical analysis)", "type": "in vivo, female Swiss nude mouse", "description": "The 3C23K antibody was evaluated according to the following scheme: 2 times per week for 6 weeks, for a total of 12 injections at about 10 mg/kg/injection, said administration regimen being designated below as “Q3-4D12”. Another group of mice was treated with an irrelevant antibody LFB-R565, administered at about 10 mg/kg/injection, according to the regimen Q3-4D12.\nCarboplatin was evaluated, at a sub-optimum dose, i.e. about 60 mg/kg/injection, according to the following scheme: once a week, for 4 weeks, said administration regimen being designated below as “Q7D4”.\nCarboplatin was also evaluated in combination with the 3C23K antibody or with the irrelevant antibody LFB-R565. Carboplatin was administered at about 60 mg/kg/injection according to the Q7D4 regimen and the 3C23K antibody or the irrelevant antibody LFB-R565 at about 10 mg/kg/injection according to the regimen Q3-4D12.\nThe mice were randomized on D11, when the volume of the tumours was between 50 and 158 mm^3, and the treatments began on D13 (9 mice per group).\nThe tumours were usually measured twice weekly.\nThe curves of the individual volume of the tumours were plotted.\nIn one experiment with 9 mice per group, the curves and analyses were therefore stopped when fewer than 8 values per group had been obtained (8 mice alive).\nA Kruskal-Wallis test was also carried out."}, "[2]": {"system": "Cov434-AMHRII Asc1a5 tumour cells", "from_the_text": "A solution of NaCl was used as the control.\nThe animals were sacrificed when the tumour volumes reached 2000 mm^3 or for ethical reasons. The curves of mean values and median values as well as the statistical analyses were stopped when 20% of the mice in the group were dead."}, "[3]": {"biological_target": "T1, human anti-Müllerian hormone type II receptor (AMHR-II) (Homo sapiens, UniProt Q16671)", "T1 sequence (Q16671 18-573)": "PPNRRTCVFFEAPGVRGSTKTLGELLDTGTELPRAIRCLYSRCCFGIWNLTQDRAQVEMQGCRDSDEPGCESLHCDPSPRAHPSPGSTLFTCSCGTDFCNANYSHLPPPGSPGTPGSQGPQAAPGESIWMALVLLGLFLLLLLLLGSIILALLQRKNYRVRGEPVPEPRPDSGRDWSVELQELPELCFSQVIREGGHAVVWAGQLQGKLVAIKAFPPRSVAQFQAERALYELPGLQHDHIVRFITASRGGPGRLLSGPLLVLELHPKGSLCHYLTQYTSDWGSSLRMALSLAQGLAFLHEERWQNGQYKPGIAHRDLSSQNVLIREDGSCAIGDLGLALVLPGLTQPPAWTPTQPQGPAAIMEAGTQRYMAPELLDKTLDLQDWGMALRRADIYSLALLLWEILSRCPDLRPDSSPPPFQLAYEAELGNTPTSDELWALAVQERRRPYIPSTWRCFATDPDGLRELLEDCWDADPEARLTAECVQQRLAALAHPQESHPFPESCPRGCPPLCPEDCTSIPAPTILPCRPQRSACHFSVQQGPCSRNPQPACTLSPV", "conditions": "compared with unmutated humanized and chimeric 12G4; cited from earlier work"}, "[4]": {"conditions": "D11, randomization, before treatment"}}, "note": "“And” between values parts separate entries of the source, which are not always exact repeats. Equal values may be shown once. “Also recorded” adds a separate entry of the source. Read-outs that look alike come from different tables or passages of the source.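 Throughout, for Observations: End of experiment TV: control mice received NaCl solution, survival endpoint was euthanasia once tumour volume hit 2000 mm^3 or on ethical grounds.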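 Throughout, for Survival parameter Mean: control mice received NaCl solution, survival endpoint was euthanasia once tumour volume hit 2000 mm^3 or on ethical grounds.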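 Throughout, for Survival parameter Median: control mice received NaCl solution, survival endpoint was euthanasia once tumour volume hit 2000 mm^3 or on ethical grounds.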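 Throughout, for Survival parameter: logrank test chi-squared: control mice received NaCl solution, survival endpoint was euthanasia once tumour volume hit 2000 mm^3 or on ethical grounds.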"}
{"substance": "3C23K: mutated humanized 12G4 monoclonal antibody binding AMHR-II, produced by the 3C23K clone; light chain SEQ ID NO: 11, heavy chain SEQ ID NO: 13", "values": [{"measurement": "Individual tumour volume", "setting": "[1]; [4]", "result": "98 mm^3 and 90 mm^3 and 61 mm^3 and 80 mm^3 and 57 mm^3 and 147 mm^3 and 113 mm^3 and 72 mm^3"}, {"measurement": "Mean tumour volume", "setting": "[1]; [4]", "result": 88, "unit": "mm^3"}, {"measurement": "Median tumour volume", "setting": "[1]; [4]", "result": 80, "unit": "mm^3"}, {"measurement": "Individual tumour volume", "setting": "[1]; D14", "result": "104 mm^3 and 179 mm^3 and 60 mm^3 and 72 mm^3 and 67 mm^3 and 216 mm^3 and 166 mm^3 and 84 mm^3"}, {"measurement": "Mean tumour volume", "setting": "[1]; D14", "result": 111, "unit": "mm^3"}, {"measurement": "Median tumour volume", "setting": "[1]; D14", "result": 84, "unit": "mm^3"}, {"measurement": "Individual tumour volume", "setting": "[1]; D18", "result": "72 mm^3 (2×) and 88 mm^3 and 36 mm^3 and 21 mm^3 and 41 mm^3 and 140 mm^3 and 80 mm^3"}, {"measurement": "Mean tumour volume", "setting": "[1]; D18", "result": 67, "unit": "mm^3"}, {"measurement": "Median tumour volume", "setting": "[1]; D18", "result": 72, "unit": "mm^3"}, {"measurement": "Individual tumour volume", "setting": "[1]; D22", "result": "60 mm^3 and 150 mm^3 and 30 mm^3 and 0 mm^3 and 36 mm^3 and 131 mm^3 and 77 mm^3 and 158 mm^3"}, {"measurement": "Mean tumour volume", "setting": "[1]; D22", "result": 79, "unit": "mm^3"}, {"measurement": "Median tumour volume", "setting": "[1]; D22", "result": 70, "unit": "mm^3"}, {"measurement": "Individual tumour volume", "setting": "[1]; D25", "result": "0 mm^3 (3×) and 126 mm^3 and 24 mm^3 and 180 mm^3 and 74 mm^3 and 216 mm^3"}, {"measurement": "Mean tumour volume", "setting": "[1]; D25", "result": 79, "unit": "mm^3"}, {"measurement": "Median tumour volume", "setting": "[1]; D25", "result": 74, "unit": "mm^3"}, {"measurement": "Individual tumour volume", "setting": "[1]; D29", "result": "0 mm^3 (2×) and 322 mm^3 and 27 mm^3 and 48 mm^3 and 225 mm^3 and 146 mm^3 and 385 mm^3"}, {"measurement": "Mean tumour volume", "setting": "[1]; D29", "result": 151, "unit": "mm^3"}, {"measurement": "Median tumour volume", "setting": "[1]; D29", "result": 146, "unit": "mm^3"}, {"measurement": "Individual tumour volume", "setting": "[1]; D32", "result": "0 mm^3 (2×) and 501 mm^3 and 27 mm^3 and 15 mm^3 and 275 mm^3 and 180 mm^3 and 644 mm^3"}, {"measurement": "Mean tumour volume", "setting": "[1]; D32", "result": 221, "unit": "mm^3"}, {"measurement": "Median tumour volume", "setting": "[1]; D32", "result": 180, "unit": "mm^3"}, {"measurement": "Individual tumour volume", "setting": "[1]; D36", "result": "0 mm^3 (3×) and 653 mm^3 and 87 mm^3 and 363 mm^3 and 182 mm^3 and 784 mm^3"}, {"measurement": "Mean tumour volume", "setting": "[1]; D36", "result": 278, "unit": "mm^3"}, {"measurement": "Median tumour volume", "setting": "[1]; D36", "result": 182, "unit": "mm^3"}, {"measurement": "Individual tumour volume", "setting": "[1]; D39", "result": "0 mm^3 (3×) and 784 mm^3 and 210 mm^3 and 315 mm^3 and 182 mm^3 and 1200 mm^3 and 546 mm^3"}, {"measurement": "Mean tumour volume", "setting": "[1]; D39", "result": 360, "unit": "mm^3"}, {"measurement": "Median tumour volume", "setting": "[1]; D39", "result": 210, "unit": "mm^3"}, {"measurement": "Individual tumour volume", "setting": "[1]; D43", "result": "0 mm^3 (3×) and 1171 mm^3 and 420 mm^3 and 631 mm^3 and 393 mm^3 and 1403 mm^3 and 731 mm^3"}, {"measurement": "Mean tumour volume", "setting": "[1]; D43", "result": 528, "unit": "mm^3"}, {"measurement": "Median tumour volume", "setting": "[1]; D43", "result": 420, "unit": "mm^3"}, {"measurement": "Individual tumour volume", "setting": "[1]; D46", "result": "0 mm^3 (3×) and 1683 mm^3 and 598 mm^3 and 504 mm^3 and 275 mm^3 and 1650 mm^3 and 518 mm^3"}, {"measurement": "Mean tumour volume", "setting": "[1]; D46", "result": 581, "unit": "mm^3"}, {"measurement": "Median tumour volume", "setting": "[1]; D46", "result": 504, "unit": "mm^3"}, {"measurement": "Individual tumour volume", "setting": "[1]; D49", "result": "0 mm^3 (3×) and 1870 mm^3 and 1188 mm^3 and 784 mm^3 and 655 mm^3 and 2646 mm^3 and 945 mm^3"}, {"measurement": "Mean tumour volume", "setting": "[1]; D49", "result": 899, "unit": "mm^3"}, {"measurement": "Median tumour volume", "setting": "[1]; D49", "result": 784, "unit": "mm^3"}, {"measurement": "Anti-tumour activity (in words)", "setting": "[1]; carboplatin study, comparator as stated in the sentence", "result": "significant anti-tumour activity; also recorded: anti-tumour effect greater than carboplatin; also recorded: exerts anti-tumour activity"}, {"measurement": "T/C ratio", "setting": "[1]; relative to Control group, D11 (before treatment)", "result": 88, "unit": "%"}, {"measurement": "T/C ratio", "setting": "[1]; relative to Control group, D14", "result": 52, "unit": "%"}, {"measurement": "T/C ratio", "setting": "[1]; relative to Control group, D18", "result": 33, "unit": "%"}, {"measurement": "T/C ratio", "setting": "[1]; relative to Control group, D22", "result": 18, "unit": "%"}, {"measurement": "T/C ratio", "setting": "[1]; relative to Control group, D25", "result": 17, "unit": "%"}, {"measurement": "T/C ratio", "setting": "[1]; relative to Control group, D29", "result": 23, "unit": "%"}, {"measurement": "T/C ratio", "setting": "[1]; relative to Control group, D32", "result": 18, "unit": "%"}, {"measurement": "T/C ratio", "setting": "[1]; relative to Control group, D36", "result": 12, "unit": "%"}, {"measurement": "T/C ratio", "setting": "[1]; relative to LFB-R565, after D18 up to D36", "result": "less than 26%"}, {"measurement": "T/C ratio", "setting": "[1]; relative to LFB-R565 group, D11 (before treatment)", "result": 99, "unit": "%"}, {"measurement": "T/C ratio", "setting": "[1]; relative to LFB-R565 group, D14", "result": 55, "unit": "%"}, {"measurement": "T/C ratio", "setting": "[1]; relative to LFB-R565 group, D18", "result": 41, "unit": "%"}, {"measurement": "T/C ratio", "setting": "[1]; relative to LFB-R565 group, D22", "result": 26, "unit": "%"}, {"measurement": "T/C ratio", "setting": "[1]; relative to LFB-R565 group, D25", "result": 18, "unit": "%"}, {"measurement": "T/C ratio", "setting": "[1]; relative to LFB-R565 group, D29", "result": 21, "unit": "%"}, {"measurement": "T/C ratio", "setting": "[1]; relative to LFB-R565 group, D32", "result": 26, "unit": "%"}, {"measurement": "T/C ratio", "setting": "[1]; relative to LFB-R565 group, D36", "result": 10, "unit": "%"}, {"measurement": "T/C ratio", "setting": "[1]; relative to carboplatin group, D11 (before treatment)", "result": 99, "unit": "%"}, {"measurement": "T/C ratio", "setting": "[1]; relative to carboplatin group, D14", "result": 63, "unit": "%"}, {"measurement": "T/C ratio", "setting": "[1]; relative to carboplatin group, D18", "result": 64, "unit": "%"}, {"measurement": "T/C ratio", "setting": "[1]; relative to carboplatin group, D22", "result": 26, "unit": "%"}, {"measurement": "T/C ratio", "setting": "[1]; relative to carboplatin group, D25", "result": 31, "unit": "%"}, {"measurement": "T/C ratio", "setting": "[1]; relative to carboplatin group, D29", "result": 41, "unit": "%"}, {"measurement": "T/C ratio", "setting": "[1]; relative to carboplatin group, D32", "result": 39, "unit": "%"}, {"measurement": "T/C ratio", "setting": "[1]; relative to carboplatin group, D36", "result": 29, "unit": "%"}, {"measurement": "T/C ratio", "setting": "[1]; relative to carboplatin group, D39", "result": 32, "unit": "%"}, {"measurement": "T/C ratio", "setting": "[1]; relative to carboplatin group, D43", "result": 48, "unit": "%"}, {"measurement": "T/C ratio", "setting": "[1]; relative to carboplatin group, from D22 to D39", "result": "less than 42%"}, {"measurement": "T/C ratio", "setting": "[1]; relative to control, after D18 (from D22) up to D36", "result": "less than 23%"}, {"measurement": "Survival parameter: logrank test chi-squared", "setting": "[2]; contrast vs control", "result": 11.15}, {"measurement": "Survival parameter: logrank test chi-squared", "setting": "[2]; contrast vs paclitaxel 15 mg/kg q7d4", "result": 12.36}, {"measurement": "Survival parameter Mean", "setting": "[2]; group of 8 mice", "result": 70, "unit": "days"}, {"measurement": "Survival parameter Median", "setting": "[2]; group of 8 mice", "result": 73, "unit": "days"}, {"measurement": "Observations: End of experiment TV", "setting": "[2]; individual mice alive at day 83", "result": "1615 mm3 and 1463 mm3"}, {"measurement": "Observations", "setting": "[2]; individual mice alive at day 83, end of experiment", "result": "End of experiment no"}, {"measurement": "survival parameter", "setting": "[2]; individual mice, experiment ended on day 83", "result": "51 Days and 55 Days and 62 Days and 69 Days and 76 Days and 83 Days (3×)"}, {"measurement": "Statistical analysis based on the survival parameter (in words)", "setting": "[2]; mouse, in vivo", "result": "significant anti-tumour activity; also recorded: significantly different from that of paclitaxel in monotherapy"}, {"measurement": "Affinity for AMHR-II (in words)", "setting": "[3]", "result": "affinity far better than that of the unmutated humanized 12G4 antibody"}]}
